# Test results: patent US8101768B2, “Cyclic amine compound and pest control agent” (Nippon Soda Co., Ltd., priority 2004, dated 2012)
# Test system: organophosphorous agent resistant two-spotted spider mites
# Test: Effect on Two-spotted Spider Mite (spray on kidney bean leaves)
# Assay type: in vivo
# Details: 125 ppm, water dispersible powder of Formulation Example 1 sprayed, 17 female adults, 25° C., 65% humidity, 3 days
# From the text: Effect on Two-spotted Spider Mite
# 17 female adults of organophosphorous agent resistant two-spotted spider mites were inoculated onto the first leaves of kidney beans seeded onto 3.5 inch pots and germinated 7 to 10 days before, onto which each of liquid agents, diluted with water so as to adjust the respective concentration of the chemical compounds to 125 ppm according to the formulation of the water dispersible powder shown in the aforementioned Formulation Example 1, was sprayed. After they were left in a thermostatic chamber at 25° C. in 65% humidity for 3 days, the rate of killed adults was investigated. The examination was repeated twice. As the results, the following chemical compounds killed 100% of the adults.
smiles,measurement,value
O=C(OCC(F)(F)F)c1cc(C(F)(F)F)ccc1OC1CC2CCC(C1)N2c1ccc(C(F)(F)F)cn1 (stereo not shown) [2-240],rate of killed adults,100%
"CC(C)=COc1cc(C(F)(F)F)ccc1O[C@H]1C[C@H]2CC[C@@H](C1)N2c1ccc(C(F)(F)F)cn1 [2-245, 3α-[2-(2-methylpropenyloxy)-4-(trifluoromethyl)phenoxy]-8-[5-(trifluoromethyl)-2-pyridyl]-8-azabicyclo[3.2.1]octane]",rate of killed adults,100%
FC(F)COc1cc(C(F)(F)F)ccc1OC1CC2CCC(C1)N2c1ccc(C(F)(F)F)cn1 (stereo not shown) [2-246],rate of killed adults,100%
C=CC(C)OC(=O)c1cc(C(F)(F)F)ccc1OC1CC2CCC(C1)[N+]2([O-])c1ccc(C(F)(F)F)cn1 (stereo not shown) [2-247],rate of killed adults,100%
N#Cc1cc(C(F)(F)F)ccc1O[C@@H]1[C@@H]2CC[C@H]1CN(c1ccc(C(F)(F)F)cn1)C2 [5-32],rate of killed adults,100%
O=[N+]([O-])c1cc(C(F)(F)F)ccc1O[C@@H]1[C@@H]2CC[C@H]1CN(c1ccc(C(F)(F)F)cn1)C2 [5-38],rate of killed adults,100%
COCOCc1cc(O[C@@H]2[C@@H]3CC[C@H]2CN(c2ccc(C(F)(F)F)cn2)C3)ccc1C(F)(F)F [5-70],rate of killed adults,100%
C=CCc1cc(C(F)(F)F)ccc1O[C@@H]1[C@@H]2CC[C@H]1CN(c1ccc(C(F)(F)F)cn1)C2 [5-75],rate of killed adults,100%
COc1cc(C(F)(F)F)ccc1O[C@@H]1[C@@H]2CC[C@H]1CN(c1ccc(C(F)(F)F)cn1)C2 [5-89],rate of killed adults,100%
CCCOc1cc(C(F)(F)F)ccc1O[C@@H]1[C@@H]2CC[C@H]1CN(c1ccc(C#N)cn1)C2 [5-96],rate of killed adults,100%
CCCOc1cc(C(F)(F)F)ccc1O[C@@H]1[C@@H]2CC[C@H]1CN(c1ccc(C(F)F)cn1)C2 [5-99],rate of killed adults,100%
CCCOc1cc(C(F)(F)F)ccc1O[C@@H]1[C@@H]2CC[C@H]1CN(c1ccc(C=O)cn1)C2 [5-100],rate of killed adults,100%
CCCOc1cc(C#N)ccc1O[C@@H]1[C@@H]2CC[C@H]1CN(c1ccc(C(F)(F)F)cn1)C2 [5-102],rate of killed adults,100%
FC(F)(F)c1ccc(N2C[C@H]3CC[C@@H](C2)[C@@H]3Oc2ccc(C(F)(F)F)cc2OC2CC2(Cl)Cl)nc1 (stereo partly shown) [5-104],rate of killed adults,100%
FC(F)(F)c1ccc(N2C[C@H]3CC[C@@H](C2)[C@@H]3Oc2ccc(C(F)(F)F)cc2OCc2ccccc2)nc1 [5-106],rate of killed adults,100%
CC(=O)OC(C)COc1cc(C(F)(F)F)ccc1O[C@@H]1[C@@H]2CC[C@H]1CN(c1ccc(C(F)(F)F)cn1)C2 (stereo partly shown) [5-114],rate of killed adults,100%
COCCOc1cc(C(F)(F)F)ccc1O[C@@H]1[C@@H]2CC[C@H]1CN(c1ccc(C#N)cn1)C2 [5-125],rate of killed adults,100%
CC(=O)COc1cc(C(F)(F)F)ccc1O[C@@H]1[C@@H]2CC[C@H]1CN(c1ccc(C(F)(F)F)cn1)C2 [5-126],rate of killed adults,100%
CC(O)COc1cc(C(F)(F)F)ccc1OC1C2CCC1CN(c1ccc(C(F)(F)F)cn1)C2 (stereo not shown) [5-127],rate of killed adults,100%
COC(C)COc1cc(C(F)(F)F)ccc1OC1C2CCC1CN(c1ccc(C(F)(F)F)cn1)C2 (stereo not shown) [5-128],rate of killed adults,100%
CC(C)(O)COc1cc(C(F)(F)F)ccc1OC1C2CCC1CN(c1ccc(C(F)(F)F)cn1)C2 (stereo not shown) [5-129],rate of killed adults,100%
COC(C)(C)COc1cc(C(F)(F)F)ccc1OC1C2CCC1CN(c1ccc(C(F)(F)F)cn1)C2 (stereo not shown) [5-130],rate of killed adults,100%
CC(=O)OCCOc1cc(C(F)(F)F)ccc1OC1C2CCC1CN(c1ccc(C(F)(F)F)cn1)C2 (stereo not shown) [5-134],rate of killed adults,100%
CC(Cl)COc1cc(C(F)(F)F)ccc1OC1C2CCC1CN(c1ccc(C(F)(F)F)cn1)C2 (stereo not shown) [5-138],rate of killed adults,100%
CC(C)=CCOc1cc(C(F)(F)F)ccc1OC1C2CCC1CN(c1ccc(C(F)(F)F)cn1)C2 (stereo not shown) [5-139],rate of killed adults,100%
FC(F)(F)c1ccc(N2CC3CCC(C2)C3Oc2ccc(C(F)(F)F)cc2OCCCl)nc1 (stereo not shown) [5-147],rate of killed adults,100%
CS(=O)(=O)Oc1cc(C(F)(F)F)ccc1OC1C2CCC1CN(c1ccc(C(F)(F)F)cn1)C2 (stereo not shown) [5-161],rate of killed adults,100%
CCCS(=O)(=O)Oc1cc(C(F)(F)F)ccc1OC1C2CCC1CN(c1ccc(C(F)(F)F)cn1)C2 (stereo not shown) [5-163],rate of killed adults,100%
CC(C)S(=O)(=O)Oc1cc(C(F)(F)F)ccc1OC1C2CCC1CN(c1ccc(C(F)(F)F)cn1)C2 (stereo not shown) [5-164],rate of killed adults,100%
C=CCCOc1cc(C(F)(F)F)ccc1OC1C2CCC1CN(c1ccc(C(F)(F)F)cn1)C2 (stereo not shown) [5-176],rate of killed adults,100%
CC(COc1cc(C(F)(F)F)ccc1OC1C2CCC1CN(c1ccc(C(F)(F)F)cn1)C2)=NO (stereo not shown) [5-182],rate of killed adults,100%
CC(COc1cc(C(F)(F)F)ccc1OC1C2CCC1CN(c1ccc(C(F)(F)F)cn1)C2)=NO (stereo not shown) [5-183],rate of killed adults,100%
CON=C(C)COc1cc(C(F)(F)F)ccc1OC1C2CCC1CN(c1ccc(C(F)(F)F)cn1)C2 (stereo not shown) [5-184],rate of killed adults,100%
CCCN(C)c1cc(C(F)(F)F)ccc1OC1C2CCC1CN(c1ccc(C(F)(F)F)cn1)C2 (stereo not shown) [5-191],rate of killed adults,100%
CCC(=O)Oc1cc(C(F)(F)F)ccc1OC1C2CCC1CN(c1ccc(C(F)(F)F)cn1)C2 (stereo not shown) [5-198],rate of killed adults,100%
CCCC(=O)Oc1cc(C(F)(F)F)ccc1OC1C2CCC1CN(c1ccc(C(F)(F)F)cn1)C2 (stereo not shown) [5-199],rate of killed adults,100%
CC(C)(C)C(=O)Oc1cc(C(F)(F)F)ccc1OC1C2CCC1CN(c1ccc(C(F)(F)F)cn1)C2 (stereo not shown) [5-200],rate of killed adults,100%
FC(F)(F)c1ccc(N2CC3CCC(C2)C3Oc2ccc(C(F)(F)F)cc2OCC2CCCO2)nc1 (stereo not shown) [5-204],rate of killed adults,100%
FC(F)(F)c1ccc(N2CC3CCC(C2)C3Oc2ccc(C(F)(F)F)cc2OCC2CCOC2)nc1 (stereo not shown) [5-205],rate of killed adults,100%
FC(F)(F)c1ccc(N2CC3CCC(C2)C3Oc2ccc(C(F)(F)F)cc2OCc2ccco2)nc1 (stereo not shown) [5-206],rate of killed adults,100%
FC(F)(F)c1ccc(N2CC3CCC(C2)C3Oc2ccc(C(F)(F)F)cc2OCc2ccoc2)nc1 (stereo not shown) [5-207],rate of killed adults,100%
FC(F)(F)c1ccc(N2CC3CCC(C2)C3Oc2ccc(C(F)(F)F)cc2OCc2ccsc2)nc1 (stereo not shown) [5-208],rate of killed adults,100%
FC(F)(F)c1ccc(N2CC3CCC(C2)C3Oc2ccc(C(F)(F)F)cc2OCc2cccs2)nc1 (stereo not shown) [5-209],rate of killed adults,100%
Cc1ccc(N2CC3CCC(C2)C3Oc2ccc(C(F)(F)F)cc2OC2CC2(Cl)Cl)nc1 (stereo not shown) [5-210],rate of killed adults,100%
FC(F)(F)c1ccc(N2CC3CCC(C2)C3Oc2ccc(C(F)(F)F)cc2OCc2cccnc2)nc1 (stereo not shown) [5-211],rate of killed adults,100%
FC(F)(F)c1ccc(N2CC3CCC(C2)C3Oc2ccc(C(F)(F)F)cc2OCc2ccccn2)nc1 (stereo not shown) [5-212],rate of killed adults,100%
FC(F)(F)c1ccc(N2CC3CCC(C2)C3Oc2ccc(C(F)(F)F)cc2OCC2CCO2)nc1 (stereo not shown) [5-213],rate of killed adults,100%
FC(F)(F)c1ccc(N2CC3CCC(C2)C3Oc2ccc(C(F)(F)F)cc2OCC2CCCO2)nc1 (stereo not shown) [5-214],rate of killed adults,100%
CCCCOCc1cc(C(F)(F)F)ccc1OC1C2CCC1CN(c1ccc(C(F)(F)F)cn1)C2 (stereo not shown) [5-223],rate of killed adults,100%
FC(F)(F)c1ccc(N2CC3CCC(C2)C3Oc2ccc(C(F)(F)F)cc2COC2CCOC2)nc1 (stereo not shown) [5-231],rate of killed adults,100%
CC#CCOc1cc(C(F)(F)F)ccc1OC1C2CCC1CN(c1ccc(C(F)(F)F)cn1)C2 (stereo not shown) [5-232],rate of killed adults,100%
FC(F)(F)c1ccc(N2CC3CCC(C2)C3Oc2ccc(C(F)(F)F)cc2C2CC=CO2)nc1 (stereo not shown) [5-235],rate of killed adults,100%
CCCCC(O)c1cc(C(F)(F)F)ccc1OC1C2CCC1CN(c1ccc(C(F)(F)F)cn1)C2 (stereo not shown) [5-238],rate of killed adults,100%
CCCC(=O)c1cc(C(F)(F)F)ccc1OC1C2CCC1CN(c1ccc(C(F)(F)F)cn1)C2 (stereo not shown) [5-240],rate of killed adults,100%
CCC(C)OCc1cc(C(F)(F)F)ccc1O[C@@H]1[C@@H]2CC[C@H]1CN(c1ccc(C(F)(F)F)cn1)C2 (stereo partly shown) [5-242],rate of killed adults,100%
CCCOC(=O)c1cc(C(F)(F)F)ccc1O[C@@H]1[C@@H]2CC[C@H]1CN(c1ccc(C(F)(F)F)cn1)C2 [5-244],rate of killed adults,100%
COCCc1cc(C(F)(F)F)ccc1O[C@@H]1[C@@H]2CC[C@H]1CN(c1ccc(C(F)(F)F)cn1)C2 [5-246],rate of killed adults,100%
COC=Cc1cc(C(F)(F)F)ccc1O[C@@H]1[C@@H]2CC[C@H]1CN(c1ccc(C(F)(F)F)cn1)C2 [5-247],rate of killed adults,100%
CCN(C)C(=O)c1cc(C(F)(F)F)ccc1O[C@@H]1[C@@H]2CC[C@H]1CN(c1ccc(C(F)(F)F)cn1)C2 [5-249],rate of killed adults,100%
CC(C)(C)CC(O)c1cc(C(F)(F)F)ccc1O[C@@H]1[C@@H]2CC[C@H]1CN(c1ccc(C(F)(F)F)cn1)C2 (stereo partly shown) [5-255],rate of killed adults,100%
CC(=O)OC(CC(C)C)c1cc(C(F)(F)F)ccc1O[C@@H]1[C@@H]2CC[C@H]1CN(c1ccc(C(F)(F)F)cn1)C2 (stereo partly shown) [5-258],rate of killed adults,100%
CCC1COC(c2cc(C(F)(F)F)ccc2O[C@@H]2[C@@H]3CC[C@H]2CN(c2ccc(C(F)(F)F)cn2)C3)N1 (stereo partly shown) [5-263],rate of killed adults,100%
FC(F)(F)c1ccc(O[C@@H]2[C@@H]3CC[C@H]2CN(c2ccc(C(F)(F)F)cn2)C3)cc1 [5-264],rate of killed adults,100%
"FC(F)(F)c1ccc(OC2CCN(c3ccc(C(F)(F)F)cn3)C2)cc1 (stereo not shown) [8-63, 3-[4-(trifluoromethyl)phenoxy]-1-[5-(trifluoromethyl)-2-pyridy]pyrrolidine]",rate of killed adults,100%
